Laboratory results from patent publication EP1145714A1, “DRUGS” (Takeda Chemical Industries, Ltd., priority 1998, dated 2000).

Tests used:
[1] = tested on: vomiting induced by morphine in ferrets; assay: Vomiting induced by morphine in ferrets, oral dosing; type: in vivo; conditions: 3 mg/kg p.o., morphine 0.3 mg/kg subcutaneous
Protocol: Male 6 or 7 ferrets (1.6 to 2.0 kg) per one group were used. Morphine was subcutaneously administered at0.3 mg/0.3 ml/kg. 2.5 hours before morphine dosing, a small amount of a feed was given to the animals. 30 minutes thereafter, predetermined doses of the compound No. 3 were orally given. To a control animal group under no fasting was orally given a predetermined volume of 0.5 % methyl cellulose solution. A predetermined volume of ondansetron was orally given to the animals under fasting. To a control animal group of ondansetron under fasting was orally given a predetermined volume of physiological saline. The frequency of vomiting was counted up to 30 minutes after morphine dosing. The compound No. 3 was suspended in 0.5 % methyl cellulose solution and was then orally dosed at a ratio of 1 ml per 1 kg body weight. An injection of ondansetron at a concentration of 0.2 w/v % was orally dosed. Additionally, 0.5 % methyl cellulose solution was orally given at a ratio of 1 ml per 1 kg body weight, while physiological saline was orally given at a ratio of 1 ml per 1 kg body weight. The data relating to the frequency of vomiting, the latency and the time period from the occurrence of vomiting to the termination thereof were statistically analyzed by the Dunnett test or t test, with reference to the difference from the control group.
The retching suppression ratio and vomiting suppression ratio were calculated by the following formula. [Frequency of retching or vomiting in control] - [Frequency of retching or vomiting in animals dosed with compound No. 3] / [Frequency of retching or vomiting in control] x 100 (%) [formula]

[2] = tested on: methotrexate-induced delayed vomiting in dogs; assay: Methotrexate-induced delayed vomiting in dogs, oral dosing; type: in vivo, beagle dogs; conditions: methotrexate 2.5 mg/kg i.v.
Protocol: 3 or 4 beagle dogs (8.3 to 12.6 kg), male or female per one group were used. Methotrexate was intravenously administered at 2.5 mg/ml/kg. 8, 24 and 48 hours after methotrexate dosing, predetermined doses of the compound No. 3, ondansetron and 0.5% methyl cellulose solution were orally given. The compound No. 3 and 0.5 % methyl cellulose solution were dosed 30 minutes after a small amount of a feed was given to the animals, while ondansetron was dosed to the animals under fasting. The frequency of vomiting was counted in number, up to 72 hours after methotrexate dosing. The compound No. 3 was suspended in 0.5 % methyl cellulose solution and was then orally dosed at a ratio of 0.25 to 1 ml per 1 kg body weight. A predetermined volume of an ondansetron injection at a concentration of 0.2 w/v % was orally dosed. Additionally, 0.5 % methyl cellulose solution was orally given at a ratio of 1 ml per 1 kg body weight. The data relating to the frequency of vomiting, the latency and the time period from the occurrence of vomiting to the termination thereof were statistically analyzed by the Dunnett test, with reference to the difference from the control group.
The delayed vomiting suppression ratio and the suppression ratio of the total frequency of vomiting were calculated by the following formula.

[3] = tested on: vomiting induced by a central emetic agent apomorphine in dogs; assay: Vomiting induced by apomorphine in dogs; type: in vivo, beagle dogs; conditions: 10 mg/kg p.o., apomorphine 0.1 mg/kg subcutaneous
Protocol: 3 male or female beagle dogs (7.8 to 15.9 kg) per one group were used. Apomorphine was subcutaneously given at 0.1 mg/ml/kg. 2.5 hours prior to apomorphine administration, a small amount of a feed was given to the animals. 30 minutes thereafter, predetermined doses of the compound No. 3 were orally given. Similarly, 0.5 % methyl cellulose solution was orally given to a control animal group under no fasting. A predetermined dose of ondansetron was given orally to the animals under fasting. The frequency of vomiting was counted in number, up to one hour after apomorphine administration. The compound No. 3 was dissolved in 0.5 % methyl cellulose solution, for oral dosing at a ratio of 1 ml per 1 kg • body weight. An injection of ondansetron at a concentration of 0.2% w/v was orally given. Additionally, 0.5 % methyl cellulose solution was orally given at a ratio of 1 ml per 1 kg • body weight. The data relating to the frequency of vomiting, the latency and the time period from the occurrence of vomiting to the termination thereof were statistically analyzed by the Dunnett test, with reference to the difference from the control group.
The vomiting suppression ratio was calculated by the following formula.

For `Cc1nccn1CC1CCc2c(c3ccccc3n2C)C1=O` (stereo not shown) [Ondansetron, ondansetron, reference compound], the “Acute vomiting suppression ratio” value [1] was 0 % NS, the “Effect on retching and vomiting (in words)” value [1] was “did not suppress” and the Pseudo-vomiting suppression ratio [1] was 12 % NS. The “A: Number of ferrets with retching/number of tested ferrets” value ([1]; under fasting, 30 minutes) was 5/6, the “B: Frequency of retching (mean ± SD)” value ([1]; under fasting, 30 minutes) was 17.2 ± 6.4 and the “C: Time period until first retching (minute; mean ± SD)” value ([1]; under fasting, 30 minutes) was 8.8 ± 4.3 min. For the same molecule, the “D: Duration of retching (minute; mean ± SD)” value ([1]; under fasting, 30 minutes) was 5.0 ± 2.3 min, the “E: Number of ferrets with vomiting/number of tested ferrets” value ([1]; under fasting, 30 minutes) was 5/6 and the “F: Frequency of vomiting (mean ± SD)” value ([1]; under fasting, 30 minutes) was 2.3 ± 1.2. The “G: Time period until first vomiting (minute; mean ± SD)” value ([1]; under fasting, 30 minutes) was 9.2 ± 4.2 min, the “H: Duration of vomiting (minute; mean ± SD)” value ([1]; under fasting, 30 minutes) was 3.7 ± 2.6 min and the “Delayed vomiting suppression ratio (24 to 72 hours after MIX dosing)” value ([2]; 10 mg/kg p.o. once daily) was 21 % NS. For the same molecule, the “Suppression ratio of total frequency of vomiting (0 to 72 hours after MTX dosing)” value ([2]; 10 mg/kg p.o. once daily) was 24 % NS, the “Duration (in hour; mean ± SD)” value ([2]; 10 mg/kg p.o.) was 27.8 ± 2.7 h and the “Frequency of vomiting (mean ± SD), Day 0 (0-24 hours)” value ([2]; 10 mg/kg p.o.) was 0 b. For the same molecule, the “Frequency of vomiting (mean ± SD), Days 1 + 2 (24 - 72 hours)” value ([2]; 10 mg/kg p.o.) was 9.3 ± 2.3, the “Latency (in hour; mean ± SD)” value ([2]; 10 mg/kg p.o.) was 28.6 ± 3.9 h and the “Frequency of vomiting (mean ± SD), Total frequency” value ([2]; 10 mg/kg p.o., 72 hours) was 9.3 ± 2.3. The “Number of dogs with vomiting/number of tested dogs” value ([2]; 10 mg/kg p.o., 72 hours) was 3/3, the “Effect on vomiting (in words)” value [3] was “did not suppress” and the Vomiting suppression ratio [3] was 0 % NS. For the same molecule, the “B: Frequency of vomiting (mean ± SD)” value ([3]; one hour) was 13.7 ± 2.4, the “C: Time period until first vomiting (minute; mean ± SD)” value ([3]; one hour) was 2.4 ± 0.6 min and the “D: Duration of vomiting (minute; mean ± SD)” value ([3]; one hour) was 22.8 ± 3.6 min. The “Number of dogs with vomiting/number of tested dogs” value ([3]; one hour) was 3/3.
